We go through 32 compounds from patent publication US8846698B2, “Pyrrolo[2,3-d]pyrimidine tropomysin-related kinase inhibitors” (Pfizer Limited, priority 2011, dated 2014).

The target of this test is TRKA (Homo sapiens (Human), UniProt P04629). The experiment in a line: Isolated TRK enzyme assay (HTRF KinEASE-TK), TRKA. The format is biochemical. The settings on record: read-out: Trka enzyme (IC50).
Chain of TRKA (P04629 441-796): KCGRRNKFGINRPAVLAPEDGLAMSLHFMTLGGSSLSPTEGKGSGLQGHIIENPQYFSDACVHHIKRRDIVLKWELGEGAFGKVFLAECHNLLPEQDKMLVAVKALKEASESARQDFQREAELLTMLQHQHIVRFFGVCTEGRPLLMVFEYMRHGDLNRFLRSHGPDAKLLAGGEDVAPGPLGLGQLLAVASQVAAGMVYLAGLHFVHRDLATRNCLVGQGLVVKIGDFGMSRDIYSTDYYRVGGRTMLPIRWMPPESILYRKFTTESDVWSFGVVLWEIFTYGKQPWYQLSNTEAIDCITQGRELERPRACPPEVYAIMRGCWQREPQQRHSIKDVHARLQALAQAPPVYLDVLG
For the compound `COCc1ccc(CC(=O)Nc2cncc(C(=O)c3cn(C)c4ncncc34)c2)cc1` [Example 333, 2-[4-(methoxymethyl)phenyl]-N-{5-[(7-methyl-7H-pyrrolo[2,3-d]pyrimidin-5-yl)carbonyl]pyridin-3-yl}acetamide], the IC50 (usually the point on the concentration scale where inhibition reaches its midpoint) came to 9800 nM.
Regarding `Cn1cc(C(=O)c2cncc(NC(=O)COc3ccc(F)cc3)c2)c2cncnc21` [Example 334, 2-(4-fluorophenoxy)-N-{5-[(7-methyl-7H-pyrrolo[2,3-d]pyrimidin-5-yl)carbonyl]pyridin-3-yl}acetamide], the IC50 worked out at 1550 nM.
For `Cn1cc(C(=O)c2cncc(NC(=O)C3(c4ccccc4)CC3)c2)c2cncnc21` [Example 336, N-{5-[(7-methyl-7H-pyrrolo[2,3-d]pyrimidin-5-yl)carbonyl]pyridin-3-yl}-1-phenylcyclopropanecarboxamide], the IC50 amounted to 9800 nM.
For `Cn1cc(C(=O)c2cncc(NC(=O)C3Cc4ccccc4C3)c2)c2cncnc21` [Example 337, N-{5-[(7-methyl-7H-pyrrolo[2,3-d]pyrimidin-5-yl)carbonyl]pyridin-3-yl}indane-2-carboxamide], the IC50 is 4280 nM.
Take `C[C@@H](C(=O)Nc1cncc(C(=O)c2cn(C)c3ncncc23)c1)c1ccccc1` [Example 338, (2R)—N-{5-[(7-methyl-7H-pyrrolo[2,3-d]pyrimidin-5-yl)carbonyl]pyridin-3-yl}-2-phenylpropanamide]: the IC50 worked out at 2730 nM.
On to `CC(C)n1cc(C(=O)c2cncc(NC(=O)C(CO)c3ccccc3)c2)c2cncnc21` (centres unmarked) [Example 339, 3-hydroxy-2-phenyl-N-(5-{[7-(propan-2-yl)-7H-pyrrolo[2,3-d]pyrimidin-5-yl]carbonyl}pyridin-3-yl)propanamide], for which the IC50 was found to be 251 nM.
Regarding `COc1ccc2c(ccn2CC(=O)Nc2cncc(C(=O)c3cn(C(C)C)c4ncncc34)c2)c1` [Example 340, N-{5-[(7-isopropyl-7H-pyrrolo[2,3-d]pyrimidin-5-yl)carbonyl]-pyridin-3-yl}-2-(5-methoxy-1H-indol-1-yl)acetamide], the IC50 is 451 nM.
Regarding `CC(C)n1cc(C(=O)c2cncc(NC(=O)c3cccc(Cl)c3)c2)c2cncnc21` [Example 343, 3-chloro-N-(5-{[7-(propan-2-yl)-7H-pyrrolo[2,3-d]pyrimidin-5-yl]carbonyl}pyridin-3-yl)benzamide], the IC50 came to 53.9 nM.
The result for `CC(C)n1cc(C(=O)c2cncc(NC(=O)c3ccc(Cl)cc3)c2)c2cncnc21` [Example 344, 4-chloro-N-(5-{[7-(propan-2-yl)-7H-pyrrolo[2,3-d]pyrimidin-5-yl]carbonyl}pyridin-3-yl)benzamide] reads 326 nM.
`CC(C)n1cc(C(=O)c2cncc(NC(=O)c3ccc(C(F)(F)F)cc3)c2)c2cncnc21` [Example 345, N-(5-{[7-(propan-2-yl)-7H-pyrrolo[2,3-d]pyrimidin-5-yl]carbonyl}pyridin-3-yl)-4-(trifluoromethyl)benzamide]: the IC50 was found to be 362 nM.
As for `CC(C)n1cc(C(=O)c2cncc(NC(=O)c3ccc(OC(F)(F)F)cc3)c2)c2cncnc21` [Example 346, N-(5-{[7-(propan-2-yl)-7H-pyrrolo[2,3-d]pyrimidin-5-yl]carbonyl}pyridin-3-yl)-4-(trifluoromethoxy)benzamide], the half-inhibitory concentration (IC50) was 253 nM.
For the compound `CC(C)n1cc(C(=O)c2cncc(NC(=O)COc3ccccc3C#N)c2)c2cncnc21` [Example 347, 2-(2-cyanophenoxy)-N-(5-{[7-(propan-2-yl)-7H-pyrrolo[2,3-d]pyrimidin-5-yl]carbonyl}pyridin-3-yl)acetamide], the IC50 amounted to 155 nM.
Regarding `CC(C)n1cc(C(=O)c2cncc(NC(=O)COc3ccc(OC(F)(F)F)cc3)c2)c2cncnc21` [Example 348, N-(5-{[7-(propan-2-yl)-7H-pyrrolo[2,3-d]pyrimidin-5-yl]carbonyl}pyridin-3-yl)-2-[4-(trifluoromethoxy)phenoxy]acetamide], the IC50 is 36.6 nM.
In the case of `CC(C)n1cc(C(=O)c2cncc(NC(=O)C(N)c3ccc(Cl)cc3)c2)c2cncnc21` (centres unmarked) [Example 350, 2-amino-2-(4-chlorophenyl)-N-(5-(7-isopropyl-7H-pyrrolo[2,3-d]pyrimidine-5-carbonyl)pyridin-3-yl)acetamide], the IC50 is 153 nM.
As to `CC(C)(CO)n1cc(C(=O)c2cncc(NC(=O)Cc3ccc(C#N)cn3)c2)c2cnc(N)nc21` [Example 351, N-{5-[2-Amino-7-(2-hydroxy-1,1-dimethyl-ethyl)-7H-pyrrolo[2,3-d]pyrimidine-5-carbonyl]-pyridin-3-yl}-2-(5-cyano-pyridin-2-yl)-acetamide], the IC50 was found to be 21.1 nM.
`CC(C)n1cc(C(=O)c2cncc(NC(=O)Cc3cn(C4CC4)nc3C(F)(F)F)c2)c2cncnc21` [Example 352, 2-(1-Cyclopropyl-3-trifluoromethyl-1H-pyrazol-4-yl)-N-[5-(7-isopropyl-7H-pyrrolo[2,3-d]pyrimidine-5-carbonyl)-pyridin-3-yl]-acetamide]: the IC50 is 62.6 nM.
Regarding `CC(C)n1cc(C(=O)c2cncc(NC(=O)Cn3cnc(Cl)c3Cl)c2)c2cncnc21` [Example 355, 2-(4,5-Dichloro-imidazol-1-yl)-N-[5-(7-isopropyl-7H-pyrrolo[2,3-d]pyrimidine-5-carbonyl)-pyridin-3-yl]-acetamide], the IC50 is 302 nM.
Take `Cc1cc(C(F)F)n2nc(C(=O)Nc3cncc(C(=O)c4cn(C(C)C)c5ncncc45)c3)nc2n1` [Example 356, 7-Difluoromethyl-5-methyl-[1,2,4]triazolo[1,5-a]pyrimidine-2-carboxylic acid [5-(7-isopropyl-7H-pyrrolo[2,3-d]pyrimidine-5-carbonyl)-pyridin-3-yl]-amide]: the IC50 is 56.3 nM.
Take `Cc1nc(C)n(CC(=O)Nc2cncc(C(=O)c3cn(C(C)C)c4ncncc34)c2)n1` [Example 358, 2-(3,5-Dimethyl-1,2,4-triazol-1-yl)-N-[5-(7-isopropyl-7H-pyrrolo[2,3-d]pyrimidine-5-carbonyl)-pyridin-3-yl]-acetamide]: the IC50 turned out to be 9800 nM.
In the case of `Cc1nccn1CC(=O)Nc1cncc(C(=O)c2cn(C(C)C)c3ncncc23)c1` [Example 359, N-[5-(7-Isopropyl-7H-pyrrolo[2,3-d]pyrimidine-5-carbonyl)-pyridin-3-yl]-2-(2-methyl-imidazol-1-yl)-acetamide], the IC50 stood at 9800 nM.
For `CC(C)n1cc(C(=O)c2cncc(NC(=O)Cc3cn4ccsc4n3)c2)c2cncnc21` [Example 360, 2-Imidazo[2,1-b]thiazol-6-yl-N-[5-(7-isopropyl-7H-pyrrolo[2,3-d]pyrimidine-5-carbonyl)-pyridin-3-yl]-acetamide], the IC50 stood at 956 nM.
Take `CC(C)n1cc(C(=O)c2cncc(NC(=O)Cc3nnc(O)c4ccccc34)c2)c2cncnc21` [Example 361, 2-(4-Hydroxy-phthalazin-1-yl)-N-[5-(7-isopropyl-7H-pyrrolo[2,3-d]pyrimidine-5-carbonyl)-pyridin-3-yl]-acetamide]: the IC50 was 7640 nM.
On to `Cc1sc2nc(CC(=O)Nc3cncc(C(=O)c4cn(C(C)C)c5ncncc45)c3)cn2c1C` [Example 362, 2-(2,3-Dimethyl-imidazo[2,1-b]thiazol-6-yl)-N-[5-(7-isopropyl-7H-pyrrolo[2,3-d]pyrimidine-5-carbonyl)-pyridin-3-yl]-acetamide], for which the IC50 worked out at 1910 nM.
The result for `CC(C)n1cc(C(=O)c2cncc(NC(=O)Cn3cc(C4(O)CCCC4)nn3)c2)c2cncnc21` [Example 363, 2-[4-(1-Hydroxy-cyclopentyl)-1,2,3-triazol-1-yl]-N-[5-(7-isopropyl-7H-pyrrolo[2,3-d]pyrimidine-5-carbonyl)-pyridin-3-yl]-acetamide] reads 1030 nM; that for `Cc1cccc(-c2nnnn2CC(=O)Nc2cncc(C(=O)c3cn(C(C)C)c4ncncc34)c2)c1` [Example 364, N-[5-(7-Isopropyl-7H-pyrrolo[2,3-d]pyrimidine-5-carbonyl)-pyridin-3-yl]-2-(5-m-tolyl-tetrazol-1-yl)-acetamide], 5040 nM.
With `CC(C)n1cc(C(=O)c2cncc(NC(=O)Cn3cnc(-c4ccc(F)cc4)c3)c2)c2cncnc21` [Example 365, 2-[4-(4-Fluoro-phenyl)-imidazol-1-yl]-N-[5-(7-isopropyl-7H-pyrrolo[2,3-d]pyrimidine-5-carbonyl)-pyridin-3-yl]-acetamide] the figure was 2040 nM; with `CC(C)c1ccnn1CC(=O)Nc1cncc(C(=O)c2cn(C(C)C)c3ncncc23)c1` [Example 366, 2-(5-Isopropyl-pyrazol-1-yl)-N-[5-(7-isopropyl-7H-pyrrolo[2,3-d]pyrimidine-5-carbonyl)-pyridin-3-yl]-acetamide], 354 nM.
Take `CCc1nn2cc(CC(=O)Nc3cncc(C(=O)c4cn(C(C)C)c5ncncc45)c3)nc2s1` [Example 367, 2-(2-Ethyl-imidazo[2,1-b]-1,3,4-thiadiazol-6-yl)-N-[5-(7-isopropyl-7H-pyrrolo[2,3-d]pyrimidine-5-carbonyl)-pyridin-3-yl]-acetamide]: the IC50 is 5640 nM.
Turning to `Cc1cn2cc(CC(=O)Nc3cncc(C(=O)c4cn(C(C)C)c5ncncc45)c3)nc2s1` [Example 368, N-[5-(7-Isopropyl-7H-pyrrolo[2,3-d]pyrimidine-5-carbonyl)-pyridin-3-yl]-2-(2-methyl-imidazo[2,1-b]thiazol-6-yl)-acetamide], the IC50 came out at 753 nM.
With `Cc1nc(Cl)nn1CC(=O)Nc1cncc(C(=O)c2cn(C(C)C)c3ncncc23)c1` [Example 369, 2-(3-Chloro-5-methyl-1,2,4-triazol-1-yl)-N-[5-(7-isopropyl-7H-pyrrolo[2,3-d]pyrimidine-5-carbonyl)-pyridin-3-yl]-acetamide] the figure was 3000 nM; with `CC(C)n1cc(C(=O)c2cncc(NC(=O)Cn3ccnc3-c3ccccc3)c2)c2cncnc21` [Example 370, N-[5-(7-Isopropyl-7H-pyrrolo[2,3-d]pyrimidine-5-carbonyl)-pyridin-3-yl]-2-(2-phenyl-imidazol-1-yl)-acetamide], 3540 nM.
With `CC(C)n1cc(C(=O)c2cncc(NC(=O)Cc3cn4cc(Cl)sc4n3)c2)c2cncnc21` [Example 371, 2-(2-Chloro-imidazo[2,1-b]thiazol-6-yl)-N-[5-(7-isopropyl-7H-pyrrolo[2,3-d]pyrimidine-5-carbonyl)-pyridin-3-yl]-acetamide] the figure was 97 nM.
